The values that follow come from PMC8119466, “A screen of FDA-approved drugs identifies inhibitors of protein tyrosine phosphatase 4A3 (PTP4A3 or PRL-3)” (Scientific Reports, 2021).

Format in all cases: biochemical
Assay [1] addresses T1, recombinant PRL-2 (Homo sapiens, UniProt Q12974).
T1 construct: 6xHis (N, cleaved yes); made in house; host or cells: E. coli One Shot BL21 Star
T1 sequence (Q12974 1-167): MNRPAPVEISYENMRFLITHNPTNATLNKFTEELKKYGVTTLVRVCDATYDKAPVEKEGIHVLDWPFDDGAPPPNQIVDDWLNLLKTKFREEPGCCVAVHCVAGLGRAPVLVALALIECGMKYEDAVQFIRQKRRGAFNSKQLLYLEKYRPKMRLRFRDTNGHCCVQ
Nature of the assay: In vitro phosphatase assay (DiFMUP hydrolysis), PRL-2.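 Further: PRL-2 activity read as DiFMUP hydrolysis after 20 min at room temperature with drug, enzyme first pre-reduced at 4 °C for 20 min.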

For assay [2], the target named is T2, recombinant PRL-1 (Homo sapiens, UniProt Q93096).
T2 construct: 6xHis (N, cleaved yes); made in house; host or cells: E. coli One Shot BL21 Star
T2 sequence (Q93096 1-173): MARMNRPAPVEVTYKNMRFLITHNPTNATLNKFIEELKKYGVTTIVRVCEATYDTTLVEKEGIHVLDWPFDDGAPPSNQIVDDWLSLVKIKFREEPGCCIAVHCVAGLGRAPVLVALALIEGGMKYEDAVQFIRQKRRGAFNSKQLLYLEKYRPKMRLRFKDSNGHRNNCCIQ
As to the kind of experiment: In vitro phosphatase assay (DiFMUP hydrolysis), PRL-1. Further: test concentration or dose not given here.

Assay [3] has as its target T3, recombinant PRL-3 (Homo sapiens, UniProt O75365).
T3 construct: 6xHis (N, cleaved yes); made in house; host or cells: E. coli One Shot BL21 Star
As to the kind of experiment: In vitro phosphatase assay (DiFMUP hydrolysis), PRL-3. Further: test concentration or dose not given here.

The mark [4] stands for this setting: FDA-approved drug screen, activity compared to DMSO.

Where a name gives a salt, the structure may show the parent alone. Read-outs that look alike come from different tables or passages of the source.

T3 sequence (O75365 whole entry): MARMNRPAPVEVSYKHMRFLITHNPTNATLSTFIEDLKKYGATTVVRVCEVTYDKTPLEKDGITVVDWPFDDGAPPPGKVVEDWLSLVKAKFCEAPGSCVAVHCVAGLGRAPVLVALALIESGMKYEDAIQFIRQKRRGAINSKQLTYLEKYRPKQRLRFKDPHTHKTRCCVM

For the compound `Cc1ccsc1C(=CCCN1CCC[C@@H](C(=O)O)C1)c1sccc1C` [Tiagabine], the “% Phosphatase Activity (compared to DMSO) PRL-2” value in assay [1] (setting [4]) is reported as 104%. Besides, the “% Phosphatase Activity (compared to DMSO) PRL-1” value in assay [2] (setting [4]) was 100%. Further, the “% Phosphatase Activity (compared to DMSO) PRL-3” value in assay [3] (setting [4]) was 78%.
On the same counts, the results for `CCCSc1nc(N[C@@H]2C[C@H]2c2ccc(F)c(F)c2)c2nnn([C@@H]3C[C@H](OCCO)[C@@H](O)[C@H]3O)c2n1` [Ticagrelor] are 94%, 97% and 85%.
On the same counts, the results for `O=c1sn(-c2cccc3ccccc23)c(=O)n1Cc1ccccc1` [Tideglusib] are 120%, 107% and 98%.
As for `CN(C)c1cc(NC(=O)CNC(C)(C)C)c(O)c2c1C[C@H]1C[C@H]3[C@H](N(C)C)C(O)=C(C(N)=O)C(=O)[C@@]3(O)C(O)=C1C2=O` [Tigecycline], in assay [1] (setting [4]), the “% Phosphatase Activity (compared to DMSO) PRL-2” value amounted to 45%. Moreover, the “% Phosphatase Activity (compared to DMSO) PRL-1” value in assay [2] (setting [4]) worked out at 36%. In assay [3] (setting [4]), the “% Phosphatase Activity (compared to DMSO) PRL-3” value turned out to be 24%.
Taken in the same sequence, the figures for `CC[C@H]1OC(=O)C[C@@H](O)[C@H](C)[C@@H](O[C@@H]2O[C@H](C)[C@@H](O)[C@H](N(C)C)[C@H]2O)[C@@H](CCN2C[C@H](C)C[C@H](C)C2)C[C@@H](C)C(=O)/C=C/C(C)=C/[C@@H]1CO[C@@H]1O[C@H](C)[C@@H](O)[C@@H](OC)[C@H]1OC` [Tilmicosin] were 88%, 89% and 71%.
Taken in the same sequence, the figures for `CC(C)(C)NC[C@H](O)COc1nsnc1N1CCOCC1` [Timolol Maleate] were 111%, 107% and 87%.
In the case of `CCS(=O)(=O)CCn1c([N+](=O)[O-])cnc1C` [Tinidazole], in assay [1] (setting [4]), the “% Phosphatase Activity (compared to DMSO) PRL-2” value stood at 113%. Besides, in assay [2] (setting [4]), the “% Phosphatase Activity (compared to DMSO) PRL-1” value stood at 107%. In addition, the “% Phosphatase Activity (compared to DMSO) PRL-3” value in assay [3] (setting [4]) came out at 84%.
Consider `Clc1ccc(C(Cn2ccnc2)OCc2ccsc2Cl)c(Cl)c1` (stereo not drawn) [Tioconazole], for which the “% Phosphatase Activity (compared to DMSO) PRL-2” value in assay [1] is given as 92%. In assay [2], the “% Phosphatase Activity (compared to DMSO) PRL-1” value was determined as 83%. In addition, in assay [3], the “% Phosphatase Activity (compared to DMSO) PRL-3” value is listed as 84%.
For `CC(S)C(=O)NCC(=O)O` (stereo not drawn) [Tiopronin], the “% Phosphatase Activity (compared to DMSO) PRL-2” value in assay [1] (setting [4]) was determined as 119%. Moreover, the “% Phosphatase Activity (compared to DMSO) PRL-1” value in assay [2] (setting [4]) is 90%. For the same compound, in assay [3] (setting [4]), the “% Phosphatase Activity (compared to DMSO) PRL-3” value came to 98%.
Taken in the same sequence, the figures for `C[N+]1(C)[C@@H]2C[C@@H](OC(=O)C(O)(c3cccs3)c3cccs3)C[C@H]1[C@@H]1O[C@@H]12` [Tiotropium Bromide hydrate] were 115%, 95% and 84%.
`O=c1oc2cc(O)ccc2s1` [Tioxolone]: in assay [1] (setting [4]), the “% Phosphatase Activity (compared to DMSO) PRL-2” value worked out at 124%. Also, the “% Phosphatase Activity (compared to DMSO) PRL-1” value in assay [2] (setting [4]) is listed as 102%. Also, in assay [3] (setting [4]), the “% Phosphatase Activity (compared to DMSO) PRL-3” value worked out at 92%.
On to `O=C1NC(=O)[C@@H](c2cn3c4c(cccc24)CCC3)[C@@H]1c1c[nH]c2ccccc12` [Tivantinib (ARQ 197)], for which, in assay [1] (setting [4]), the “% Phosphatase Activity (compared to DMSO) PRL-2” value was 83%. In assay [2] (setting [4]), the “% Phosphatase Activity (compared to DMSO) PRL-1” value stood at 95%. Moreover, the “% Phosphatase Activity (compared to DMSO) PRL-3” value in assay [3] (setting [4]) amounted to 90%.
Consider `COc1cc2nccc(Oc3ccc(NC(=O)Nc4cc(C)on4)c(Cl)c3)c2cc1OC` [Tivozanib (AV-951)], for which the “% Phosphatase Activity (compared to DMSO) PRL-2” value in assay [1] (setting [4]) worked out at 101%. Moreover, the “% Phosphatase Activity (compared to DMSO) PRL-1” value in assay [2] (setting [4]) turned out to be 107%. Also, the “% Phosphatase Activity (compared to DMSO) PRL-3” value in assay [3] (setting [4]) is listed as 75%.
With `Clc1ccc2nsnc2c1NC1=NCCN1` [Tizanidine HCl], the “% Phosphatase Activity (compared to DMSO) PRL-2” value in assay [1] worked out at 92%. Moreover, the “% Phosphatase Activity (compared to DMSO) PRL-1” value in assay [2] came out at 93%. Moreover, the “% Phosphatase Activity (compared to DMSO) PRL-3” value in assay [3] amounted to 76%.
With `NC[C@H]1O[C@H](O[C@H]2[C@H](O)[C@@H](O[C@H]3O[C@H](CO)[C@@H](O)[C@H](N)[C@H]3O)[C@H](N)C[C@@H]2N)[C@H](N)C[C@@H]1O` [Tobramycin], the “% Phosphatase Activity (compared to DMSO) PRL-2” value in assay [1] (setting [4]) worked out at 97%. The “% Phosphatase Activity (compared to DMSO) PRL-1” value in assay [2] (setting [4]) was 99%. Moreover, in assay [3] (setting [4]), the “% Phosphatase Activity (compared to DMSO) PRL-3” value amounted to 91%.
Taken in the same sequence, the figures for `C[C@@H]1CCN(C(=O)CC#N)C[C@@H]1N(C)c1ncnc2[nH]ccc12.O=C(O)CC(O)(CC(=O)O)C(=O)O` [Tofacitinib (CP-690550) Citrate] were 91%, 109% and 104%.
Regarding `C[C@@H]1CCN(C(=O)CC#N)C[C@@H]1N(C)c1ncnc2[nH]ccc12` [Tofacitinib (CP-690550,Tasocitinib)], the “% Phosphatase Activity (compared to DMSO) PRL-2” value in assay [1] (setting [4]) is recorded as 114%. For the same compound, the “% Phosphatase Activity (compared to DMSO) PRL-1” value in assay [2] (setting [4]) came to 117%. The “% Phosphatase Activity (compared to DMSO) PRL-3” value in assay [3] (setting [4]) worked out at 96%.
On the same counts, the results for `Cc1ccc(S(=O)(=O)NC(=O)NN2CCCCCC2)cc1` [Tolazamide] are 84%, 81% and 82%.
Taken in the same sequence, the figures for `c1ccc(CC2=NCCN2)cc1` [Tolazoline HCl] were 110%, 100% and 91%.
Take `CCCCNC(=O)NS(=O)(=O)c1ccc(C)cc1` [Tolbutamide]: the “% Phosphatase Activity (compared to DMSO) PRL-2” value in assay [1] (setting [4]) is 119%. Besides, in assay [2] (setting [4]), the “% Phosphatase Activity (compared to DMSO) PRL-1” value is reported as 104%. In assay [3] (setting [4]), the “% Phosphatase Activity (compared to DMSO) PRL-3” value worked out at 91%.
On the same counts, the results for `Cc1ccc(C(=O)c2cc(O)c(O)c([N+](=O)[O-])c2)cc1` [Tolcapone] are 89%, 78% and 71%.
For the compound `Cc1c(Cl)cccc1Nc1ccccc1C(=O)O` [Tolfenamic Acid], in assay [1] (setting [4]), the “% Phosphatase Activity (compared to DMSO) PRL-2” value is 86%. The “% Phosphatase Activity (compared to DMSO) PRL-1” value in assay [2] (setting [4]) stood at 97%. Besides, the “% Phosphatase Activity (compared to DMSO) PRL-3” value in assay [3] (setting [4]) was determined as 86%.
Regarding `Cc1ccc(C(=O)c2ccc(CC(=O)O)n2C)cc1` [Tolmetin Sodium], in assay [1] (setting [4]), the “% Phosphatase Activity (compared to DMSO) PRL-2” value is recorded as 79%. The “% Phosphatase Activity (compared to DMSO) PRL-1” value in assay [2] (setting [4]) turned out to be 95%. In assay [3] (setting [4]), the “% Phosphatase Activity (compared to DMSO) PRL-3” value was 111%.
Taken in the same sequence, the figures for `Cc1cccc(N(C)C(=S)Oc2ccc3ccccc3c2)c1` [Tolnaftate] were 114%, 98% and 89%.
Taken in the same sequence, the figures for `Cc1ccc(C(=O)C(C)CN2CCCCC2)cc1.Cl` (stereo not drawn) [Tolperisone HCl] were 108%, 91% and 71%.
On the same counts, the results for `Cc1ccc(O)c([C@H](CCN(C(C)C)C(C)C)c2ccccc2)c1` [Tolterodine tartrate] are 110%, 98% and 93%.
For the compound `Cc1cc(-n2c(=O)[nH]c(=O)n(C)c2=O)ccc1Oc1ccc(SC(F)(F)F)cc1` [Toltrazuril], in assay [1] (setting [4]), the “% Phosphatase Activity (compared to DMSO) PRL-2” value came to 93%. Also, the “% Phosphatase Activity (compared to DMSO) PRL-1” value in assay [2] (setting [4]) was 88%. For the same compound, in assay [3] (setting [4]), the “% Phosphatase Activity (compared to DMSO) PRL-3” value was 73%.
With `Cc1ccccc1C(=O)Nc1ccc(C(=O)N2CCCC(O)c3cc(Cl)ccc32)c(C)c1` (stereo not drawn) [Tolvaptan], in assay [1] (setting [4]), the “% Phosphatase Activity (compared to DMSO) PRL-2” value was 143%. Besides, the “% Phosphatase Activity (compared to DMSO) PRL-1” value in assay [2] (setting [4]) is 97%. For the same compound, the “% Phosphatase Activity (compared to DMSO) PRL-3” value in assay [3] (setting [4]) worked out at 101%.
Regarding `CC1(C)O[C@@H]2[C@@H](CO[C@@]3(COS(N)(=O)=O)OC(C)(C)O[C@@H]23)O1` [Topiramate], the “% Phosphatase Activity (compared to DMSO) PRL-2” value in assay [1] (setting [4]) is 122%. For the same compound, the “% Phosphatase Activity (compared to DMSO) PRL-1” value in assay [2] (setting [4]) was 118%. In assay [3] (setting [4]), the “% Phosphatase Activity (compared to DMSO) PRL-3” value was 99%.
Turning to `CC[C@@]1(O)C(=O)OCc2c1cc1n(c2=O)Cc2cc3c(CN(C)C)c(O)ccc3nc2-1` [Topotecan HCl], in assay [1] (setting [4]), the “% Phosphatase Activity (compared to DMSO) PRL-2” value is reported as 192%. Moreover, the “% Phosphatase Activity (compared to DMSO) PRL-1” value in assay [2] (setting [4]) is 168%. Besides, in assay [3] (setting [4]), the “% Phosphatase Activity (compared to DMSO) PRL-3” value came to 140%.
Take `CN(C)CCOc1ccc(/C(=C(/CCCl)c2ccccc2)c2ccccc2)cc1` [Toremifene Citrate]: the “% Phosphatase Activity (compared to DMSO) PRL-2” value in assay [1] (setting [4]) is reported as 105%. Further, the “% Phosphatase Activity (compared to DMSO) PRL-1” value in assay [2] (setting [4]) is reported as 95%. Moreover, in assay [3] (setting [4]), the “% Phosphatase Activity (compared to DMSO) PRL-3” value was determined as 103%.
On the same counts, the results for `Cc1cccc(Nc2ccncc2S(=O)(=O)NC(=O)NC(C)C)c1` [Torsemide] are 93%, 99% and 77%.
Taken in the same sequence, the figures for `CC(=O)Nc1cccc(-n2c(=O)n(C3CC3)c(=O)c3c(Nc4ccc(I)cc4F)n(C)c(=O)c(C)c32)c1` [Trametinib (GSK1120212)] were 112%, 88% and 88%.
On the same counts, the results for `NC[C@H]1CC[C@H](C(=O)O)CC1` [Tranexamic Acid] are 89%, 92% and 96%.
